This test deals with human osteoblasts (KK-3, 18PDL). Description: Measurement of bone formation activity (KK-3, 14 days). The class given is cell-based. As for the experimental part:
Human osteoblasts (KK-3, 18PDL) were cultured in an α-MEM containing 10% fetal calf serum. After the growth became stationary, the compound was added in a given concentration in the presence of 2 mM α-glycerophosphate and treated for 14 days. The cell phase was washed with physiological saline, and the alkaline phosphatase activity (ALP) was measured through the absorption of OD415. Then, calcium (Ca) and phosphorus (P) were extracted with a 2N hydrochloric acid and quantitatively determined.

[1] abbreviates: Table 26, 10^-6 M, control 0.27 ± 0.04.
The mark [2] stands for this setting: Table 26, 10^-6 M, control 30.68 ± 3.33.
Where [3] appears, read: Table 26, 10^-6 M, control 45.61 ± 6.19.
Where [4] appears, read: Table 26, 10^-7 M, control 0.27 ± 0.04.
[5] abbreviates: Table 26, 10^-7 M, control 45.61 ± 6.19.
Where [6] appears, read: Table 27, 10^-7 M, control 0.58 ± 0.03.
Where [7] appears, read: Table 27, 10^-7 M, control 11.83 ± 3.18.
[8] abbreviates: Table 30, 10^-6 M, control 0.60 ± 0.02.
The mark [9] stands for this setting: Table 30, 10^-6 M, control 3.00 ± 1.73.
Setting [10] is: Table 30, 10^-7 M, control 0.60 ± 0.02.
Setting [11] is: Table 30, 10^-7 M, control 3.00 ± 1.73.
Where [12] appears, read: Table 30, 10^-7 M, control 5.33 ± 1.15.
[13] abbreviates: Table 33, 10^-5 M, control 0.80 ± 0.02.
Where [14] appears, read: Table 33, 10^-5 M, control 15.67 ± 1.53.
The mark [15] stands for this setting: Table 33, 10^-5 M, control 22.67 ± 3.06.
[16] abbreviates: Table 33, 10^-6 M, control 0.80 ± 0.02.
Setting [17] is: Table 33, 10^-6 M, control 22.67 ± 3.06.
The mark [18] stands for this setting: Table 35, 10^-5 M, control 1.23 ± 0.02.
Where [19] appears, read: Table 35, 10^-5 M, control 3.00 ± 1.00.
The mark [20] stands for this setting: Table 35, 10^-6 M, control 1.23 ± 0.02.
[21] abbreviates: Table 35, 10^-6 M, control 3.00 ± 1.00.
The mark [22] stands for this setting: Table 35, 10^-6 M, control 5.67 ± 0.58.
Setting [23] is: Table 36, 10^-6 M, control 1.17 ± 0.03.
Where [24] appears, read: Table 36, 10^-6 M, control 2.33 ± 1.15.
Setting [25] is: Table 36, 10^-7 M, control 1.17 ± 0.03.
Where [26] appears, read: Table 36, 10^-7 M, control 2.33 ± 1.15.
Where [27] appears, read: Table 36, 10^-7 M, control 5.00 ± 0.00.
[28] abbreviates: Table 28, 10^-6 M, control 4.33 ± 0.58.

Structures are written as SMILES.

Consider `O=C1C(Sc2ccccn2)=CC(O)(CCCCOc2ccccc2)C1=CC=CC(O)CCCO` (stereo not shown), for which the ALP reads like this: under setting [1], 0.36 ± 0.12 OD413 /dish; under setting [4], 0.29 ± 0.04 OD413 /dish. For the same compound, the P under setting [2] amounted to 42.28 ± 6.99 μg/dish. Also, the Ca was 70.42 ± 7.82 μg/dish under setting [3] and 56.85 μg/dish under setting [5].
Consider `O=C1C(SC2CCCCC2)=CC(O)(CCCCOc2ccccc2)C1C(O)C=CC(O)CCCO` (stereo not shown), for which the ALP under setting [6] amounted to 0.55 ± 0.04 OD413 /dish and the ALP (Table 27, 10^-8 M, control 0.58 ± 0.03) came to 0.36 OD413 /dish. The P (Table 27, 10^-7 M, control 11.50 ± 1.73) amounted to 11.67 ± 3.18 μg/dish. The compound further gave a Ca under setting [7] of 13.83 ± 1.15 μg/dish and a Ca (Table 27, 10^-8 M, control 11.83 ± 3.18) of 20.17 μg/dish.
Consider `COC(=O)CCCCCC=C1C(=O)C(Sc2nccn2C)=CC1(O)CCCCOc1ccccc1` (stereo not shown), for which the ALP is, setting by setting: under setting [8], 0.60 OD415 /dish; under setting [10], 0.63 ± 0.02 OD415 /dish. Further, the Ca reads like this: under setting [9], 43.67 μg/dish; under setting [11], 3.67 ± 1.15 μg/dish. This compound also came in with a P under setting [12] of 6.33 ± 0.58 μg/dish.
On the same counts, the results for `Cn1ccnc1SC1=CC(O)(CCCCOc2ccccc2)C(=CC=CC2(O)CCCCC2)C1=O` (stereo not shown) are 0.11 OD415 /dish, 0.58 ± 0.03 OD415 /dish, 85.67 μg/dish, 14.00 ± 1.00 μg/dish and 12.67 ± 1.15 μg/dish.
As to `Cn1ccnc1SC1=CC(O)(CCCCOc2ccccc2)C(=Cc2ccc(CC(CO)CO)cc2)C1=O` (stereo not shown), the ALP stood at 0.08 OD415 /dish under setting [8] and 0.66 ± 0.03 OD415 /dish under setting [10]. In addition, the Ca is on record as 116.00 μg/dish under setting [9] and 11.00 ± 1.73 μg/dish under setting [11]. Besides, the P under setting [12] stood at 11.67 ± 1.15 μg/dish.
`CC(C)(C)C1=C(Sc2ccccc2)C(=O)C(=CC=CC(O)CCCO)C1O` (stereo not shown): the ALP (Table 31, 10^-7 M, control 0.18 ± 0.06) came out at 0.16 ± 0.04 OD415 /dish and the ALP (Table 31, 10^-8 M, control 0.18 ± 0.06) is reported as 0.15 OD415 /dish. Moreover, the Ca is, setting by setting: (Table 31, 10^-7 M, control 1.88 ± 0.31) 2.43 ± 0.19 μg/dish; (Table 31, 10^-8 M, control 1.88 ± 0.31) 4.07 μg/dish. Also, the P (Table 31, 10^-7 M, control 4.73 ± 0.37) is reported as 4.68 ± 0.27 μg/dish.
`CSC1=CC(O)(CCCCOc2ccccc2)C(CC=CC(O)CCCO)C1=O` (stereo not shown): the ALP is, setting by setting: (Table 32, 10^-5 M, control 0.80 ± 0.01) 0.56 OD415 /dish; (Table 32, 10^-6 M, control 0.80 ± 0.01) 0.84 ± 0.03 OD415 /dish. Besides, the Ca runs as follows: (Table 32, 10^-5 M, control 23.00 ± 1.00) 30.67 ± 2.31 μg/dish; (Table 32, 10^-6 M, control 23.00 ± 1.00) 10.67 ± 1.53 μg/dish. Where the note is “Table 32, 10^-6 M, control 15.67 ± 0.58”, this compound displayed a P of 9.33 ± 1.15 μg/dish.
For the compound `COC(=O)CCCC#CCC1C(=O)C(SC)=CC1(O)CCCCOc1ccccc1` (stereo not shown), the ALP under setting [13] is listed as 0.98 ± 0.08 OD415 /dish and the ALP under setting [16] stood at 0.90 OD415 /dish. Also, the P under setting [14] came to 35.33 ± 0.58 μg/dish. Moreover, the Ca is on record as 58.67 ± 1.53 μg/dish under setting [15] and 24.33 ± 1.53 μg/dish under setting [17].
Turning to `CSC1=CC(CCCCOc2ccccc2)C(=C/C=C/C(O)CCCO)C1=O` (stereo not shown), the ALP is, setting by setting: under setting [13], 0.79 ± 0.02 OD415 /dish; under setting [16], 0.76 OD415 /dish. In addition, the P under setting [14] is on record as 31.00 ± 1.00 μg/dish. Moreover, the Ca under setting [15] was determined as 50.67 ± 1.15 μg/dish and the Ca under setting [17] amounted to 19.67 ± 2.52 μg/dish.
`O=C1C(=CCCC2CCCCC2)CC=C1Sc1ccccc1`: the ALP is, setting by setting: (Table 34, 10^-7 M, control 0.35 ± 0.02) 0.36 ± 0.04 OD415 /dish; (Table 34, 10^-8 M, control 0.35 ± 0.02) 0.30 OD415 /dish. Also, the P reads like this: (Table 34, 10^-7 M, control 12.41 ± 1.50) 12.33 ± 2.80 μg/dish; (Table 34, 10^-8 M, control 12.41 ± 1.50) 8.98 ± 1.89 μg/dish. Besides, the Ca is, setting by setting: (Table 34, 10^-7 M, control 17.81 ± 0.50) 23.94 ± 5.80 μg/dish; (Table 34, 10^-8 M, control 17.81 ± 0.50) 18.13 ± 2.6 μg/dish.
Take `CC(=O)OC(/C=C/C(O)CCCO)C1C(=O)C(Sc2nccn2C)=CC1(O)CCCCOc1ccccc1` (stereo not shown): the ALP reads like this: under setting [18], 0.15 OD415 /dish; under setting [20], 1.28 ± 0.03 OD415 /dish. For the same compound, the Ca reads like this: under setting [19], 137.00 μg/dish; under setting [21], 51.67 ± 8.08 μg/dish. In addition, under setting [22], the P came to 35.33 ± 5.03 μg/dish.
Regarding `CSC1=CC(O)(CCCCOc2ccccc2)C(C(/C=C/C(O)CCCO)OC(C)=O)C1=O` (stereo not shown), the ALP by setting is: under setting [18], 0.17 OD415 /dish; under setting [20], 1.10 ± 0.06 OD415 /dish. The Ca is, setting by setting: under setting [19], 104.00 μg/dish; under setting [21], 24.08 ± 2.00 μg/dish. This compound also showed a P under setting [22] of 18.00 ± 1.00 μg/dish.
As for `CC(C)OC(=O)OC(/C=C/C(O)CCCO)C1C(=O)C(Sc2nccn2C)=CC1(O)CCCCOc1ccccc1` (stereo not shown), the ALP worked out at 0.165 OD415 /dish under setting [18] and 1.24 ± 0.03 OD415 /dish under setting [20]. Further, the Ca reads like this: under setting [19], 136.67 μg/dish; under setting [21], 54.67 ± 2.08 μg/dish. This compound also gave a P under setting [22] of 35.00 ± 2.00 μg/dish.
Consider `CSC1=CC(O)(CCCCOc2ccccc2)C(C(/C=C/C(O)CCCO)OC(=O)OC(C)C)C1=O` (stereo not shown), for which the ALP by setting is: under setting [18], 0.18 OD415 /dish; under setting [20], 1.22 ± 0.06 OD415 /dish. Moreover, the Ca is, setting by setting: under setting [19], 109.67 μg/dish; under setting [21], 25.00 ± 1.73 μg/dish. Besides, the P under setting [22] is recorded as 19.67 ± 1.15 μg/dish.
As to `Cn1ccnc1SC1=CC(O)(CCCCOc2ccccc2)C(=CC=C2CCCCC2)C1=O` (stereo not shown), the ALP was found to be 1.09 OD415 /dish under setting [23] and 1.19 ± 0.06 OD415 /dish under setting [25]. Further, the Ca under setting [24] amounted to 15.33 μg/dish and the Ca under setting [26] turned out to be 3.33 ± 0.58 μg/dish. Also, the P under setting [27] was found to be 5.67 ± 0.58 μg/dish.
For the compound `Cn1ccnc1SC1=CC(O)(CCCCOc2ccccc2)C(=C/C=C/CO)C1=O` (stereo not shown), the ALP runs as follows: under setting [23], 1.18 OD415 /dish; under setting [25], 1.20 ± 0.03 OD415 /dish. In addition, the Ca under setting [24] was 37.33 μg/dish and the Ca under setting [26] came to 2.33 ± 0.58 μg/dish. Under setting [27], this compound registered a P of 4.33 ± 0.58 μg/dish.
Regarding `Cn1ccnc1SC1=CC(O)(CCCCOc2ccccc2)C(C(O)C2=C(C(C)(C)O)CCCC2)C1=O` (stereo not shown), the ALP is 0.87 OD415 /dish (Table 36, 10^-5 M, control 1.17 ± 0.03) and 1.20 ± 0.05 OD415 /dish under setting [23]. Besides, the Ca was found to be 50.67 μg/dish (Table 36, 10^-5 M, control 2.33 ± 1.15) and 2.00 ± 0.00 μg/dish under setting [24]. The P (Table 36, 10^-6 M, control 5.00 ± 0.00) amounted to 5.00 ± 1.00 μg/dish.
Take `CCOc1ccc2nc(SC3=CC(O)(CCCCOc4ccccc4)C(=CC=CC(O)CCCO)C3=O)sc2c1` (stereo not shown) [drawing 1068]: the ALP is, setting by setting: under setting [1], 0.10 ± 0.01 OD413 /dish; under setting [4], 0.34 ± 0.06 OD413 /dish. The same compound showed a P under setting [2] of 41.45 ± 7.21 μg/dish. The Ca is on record as 81.88 ± 8.47 μg/dish under setting [3] and 61.19 μg/dish under setting [5].
Turning to `Cn1ccnc1SC1=CC(O)(CCCCOc2ccccc2)C(=CC=CC(O)CCCO)C1=O` (stereo not shown) [drawing 1069], the ALP is, setting by setting: under setting [1], 0.48 ± 0.04 OD413 /dish; under setting [4], 0.33 OD413 /dish. The compound further returned a P under setting [2] of 46.43 ± 1.41 μg/dish. For the same compound, the Ca was determined as 79.83 ± 0.58 μg/dish under setting [3] and 61.95 μg/dish under setting [5].
For the compound `O=C1C(SC2CCCCC2)=CC(O)(CCCCOc2ccccc2)C1=CC=CC(O)CCCO` (stereo not shown) [drawing 1070], the ALP (Table 27, 10^-6 M, control 0.58 ± 0.03) was found to be 0.64 ± 0.05 OD413 /dish and the ALP under setting [6] worked out at 0.53 OD413 /dish. Also, the P (Table 27, 10^-6 M, control 11.50 ± 1.73) is recorded as 24.83 ± 2.47 μg/dish. The Ca was 33.50 ± 3.91 μg/dish (Table 27, 10^-6 M, control 11.83 ± 3.18) and 19.67 μg/dish under setting [7].
For the compound `Cn1ccnc1SC1=CC(O)(CCCCOc2ccccc2)C(C(O)C=CC(O)CCCO)C1=O` (stereo not shown) [drawing 1072], the ALP runs as follows: (Table 28, 10^-6 M, control 0.72 ± 0.01) 0.76 ± 0.08 OD413 /dish; (Table 28, 10^-7 M, control 0.72 ± 0.01) 0.81 OD413 /dish. Further, the Ca by setting is: under setting [28], 26.17 ± 3.25 μg/dish; (Table 28, 10^-7 M, control 4.33 ± 0.58) 1.17 μg/dish. Also, the P under setting [28] is listed as 19.33 ± 2.02 μg/dish.
